According to the supplement of paper PMC8253809:

System: DIPGX7 (H3.3 K27M diffuse intrinsic pontine glioma line)
Test: growth inhibition relative to DMSO (0) and positive control (1) (fraction); higher = more growth inhibition
Description: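 Paxalisib (GDC0084) x mirdametinib (PD0325901) dose matrix on pHGG cell lines and astrocyte controls, 7 days, adherent 384-well. CellTiter-Glo RLU was normalised (no log2) to fractional activity between DMSO (0) and the positive control (1). Each combination was tested in two plate orientations.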

O=C(NOC[C@H](O)CO)c1ccc(F)c(F)c1Nc1ccc(I)cc1F + CC1(C)OCCn2c1nc1c(N3CCOCC3)nc(-c3cnc(N)nc3)nc12 [GDC0084]
growth inhibition
Conditions | compound 1 concentration 0.009766 µM | compound 1 concentration 0.01953 µM | compound 1 concentration 0.03906 µM | compound 1 concentration 0.07812 µM | compound 1 concentration 0.15625 µM | compound 1 concentration 0.3125 µM | compound 1 concentration 0.625 µM | compound 1 concentration 1.25 µM | compound 1 concentration 5 µM | compound 1 concentration 20 µM
compound 2 concentration 0.03906 µM | -0.0325 | -0.0312 | -0.0934 | -0.145 | -0.164 | -0.126 | -0.119 | 0.0102 | 0.288 | 0.312
compound 2 concentration 0.07812 µM | 0.189 | 0.113 | 0.0974 | 0.0816 | -0.0134 | 0.0326 | 0.0363 | 0.178 | 0.344 | 0.313
compound 2 concentration 0.15625 µM | 0.43 | 0.379 | 0.335 | 0.264 | 0.267 | 0.238 | 0.296 | 0.364 | 0.563 | 0.467
compound 2 concentration 0.3125 µM | 0.611 | 0.641 | 0.589 | 0.561 | 0.514 | 0.483 | 0.563 | 0.627 | 0.793 | 0.747
compound 2 concentration 0.625 µM | 0.781 | 0.802 | 0.8 | 0.791 | 0.779 | 0.782 | 0.841 | 0.884 | 0.941 | 0.918
compound 2 concentration 1.25 µM | 0.874 | 0.865 | 0.876 | 0.884 | 0.893 | 0.906 | 0.934 | 0.96 | 0.982 | 0.983
compound 2 concentration 5 µM | 0.937 | 0.933 | 0.938 | 0.962 | 0.972 | 0.98 | 0.99 | 0.999 | 1 | 1
compound 2 concentration 20 µM | 0.977 | 0.987 | 0.989 | 0.994 | 0.998 | 1 | 1 | 1 | 1 | 1
